Measurements as given in ChEMBL document CHEMBL1201862, “PubChem BioAssay data set” (2004).
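Grown in 96-well plates, cells were treated for 48 hours with each compound at five concentrations. Insufficient inhibition: endpoint recorded as highest concentration tested. At the GI50, growth is halved.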 Active and inactive are the calls of the source. No stated cut-off is given here; in the data, active = GI50 up to about 1.1 µM and inactive = higher. Where a SMILES comes first, the peptide text is derived from it. The star is where a group is joined. ONb = O=[N+]([O-])c1ccc(CO*)cc1; Boc = CC(C)(C)OC(=O)*

Legend:
Assay in all cases: NCI anticancer screen, dose series, 48 h
HCC 2998 = system: HCC 2998
DU-145 = system: DU-145
MOLT-4 = system: MOLT-4
SR = system: SR
SNB-19 = system: SNB-19
CAKI-1 = system: CAKI-1
OVCAR-3 = system: OVCAR-3
BT-549 = system: BT-549
NCI-H460 = system: NCI-H460
TK-10 = system: TK-10
SK-OV-3 = system: SK-OV-3
MDA-MB-435 = system: MDA-MB-435
UACC-257 = system: UACC-257
COLO 205 = system: COLO 205
SF-539 = system: SF-539
UO-31 = system: UO-31
KM12 = system: KM12
HOP-62 = system: HOP-62
PC-3 = system: PC-3
MDA-MB-231 = system: MDA-MB-231

| Compound | GI50 (HCC 2998) | GI50 (DU-145) | GI50 (MOLT-4) | GI50 (SR) | GI50 (SNB-19) | GI50 (CAKI-1) | GI50 (OVCAR-3) | GI50 (BT-549) | GI50 (NCI-H460) | GI50 (TK-10) | GI50 (SK-OV-3) | GI50 (MDA-MB-435) | GI50 (UACC-257) | GI50 (COLO 205) | GI50 (SF-539) | GI50 (UO-31) | GI50 (KM12) | GI50 (HOP-62) | GI50 (PC-3) | GI50 (MDA-MB-231) |
| --- | --- | --- | --- | --- | --- | --- | --- | --- | --- | --- | --- | --- | --- | --- | --- | --- | --- | --- | --- | --- |
| O=C1CCCCC[C@]12SC[C@H]1CON=C12 | 29.1 µM (inactive) | 33.8 µM (inactive) | 36.3 µM (inactive) | 9.42 µM (inactive) | > 100 µM (inactive) | 22.2 µM (inactive) | 89.7 µM (inactive) | 39.2 µM (inactive) | 39.1 µM (inactive) | > 100 µM (inactive) | 37.4 µM (inactive) | 16.7 µM (inactive) | 78.2 µM (inactive) | 29.2 µM (inactive) | 41.3 µM (inactive) | 26.9 µM (inactive) | 60.3 µM (inactive) | – | – | – |
| O=C1OC(O)C(Oc2c(Cl)cccc2Cl)=C1Cl (stereo not given) | 23.3 µM (inactive) | – | 21.8 µM (inactive) | 21.7 µM (inactive) | 27.5 µM (inactive) | 18.9 µM (inactive) | 13.5 µM (inactive) | – | 15.5 µM (inactive) | 23.6 µM (inactive) | 19.5 µM (inactive) | – | 19.5 µM (inactive) | 16.5 µM (inactive) | 17 µM (inactive) | 14.1 µM (inactive) | 22.3 µM (inactive) | 17.7 µM (inactive) | – | – |
| CSc1ncnc2c1ncn2CCC(=O)O | – | > 100 µM (inactive) | > 100 µM (inactive) | > 100 µM (inactive) | > 100 µM (inactive) | > 100 µM (inactive) | > 100 µM (inactive) | – | > 100 µM (inactive) | > 100 µM (inactive) | > 100 µM (inactive) | > 100 µM (inactive) | > 100 µM (inactive) | > 100 µM (inactive) | > 100 µM (inactive) | > 100 µM (inactive) | > 100 µM (inactive) | > 100 µM (inactive) | > 100 µM (inactive) | > 100 µM (inactive) |
| Nc1ccc(C(=O)NN2C(=O)[C@H](Cl)C2c2ccc(Cl)cc2)cc1 (stereo not given in full) | 1.65 µM (inactive) | 1.56 µM (inactive) | 1.09 µM (active) | 0.324 µM (active) | 1.67 µM (inactive) | 1.4 µM (inactive) | 0.57 µM (active) | – | 2.08 µM (inactive) | 0.838 µM (active) | 1.88 µM (inactive) | 1.84 µM (inactive) | 1.74 µM (inactive) | 1.93 µM (inactive) | 1.79 µM (inactive) | 2.07 µM (inactive) | 1.5 µM (inactive) | 1.77 µM (inactive) | 1.6 µM (inactive) | 1.81 µM (inactive) |
| NCCS(=O)(=O)O [TAURINE] | > 100 µM (inactive) | > 100 µM (inactive) | > 100 µM (inactive) | > 100 µM (inactive) | > 100 µM (inactive) | > 100 µM (inactive) | > 100 µM (inactive) | – | > 100 µM (inactive) | > 100 µM (inactive) | – | > 100 µM (inactive) | > 100 µM (inactive) | > 100 µM (inactive) | > 100 µM (inactive) | > 100 µM (inactive) | > 100 µM (inactive) | > 100 µM (inactive) | > 100 µM (inactive) | > 100 µM (inactive) |
| CC(C)CCC(=O)c1ccoc1 [PERILLAKETONE] | > 100 µM (inactive) | > 100 µM (inactive) | > 100 µM (inactive) | > 100 µM (inactive) | > 100 µM (inactive) | > 100 µM (inactive) | > 100 µM (inactive) | – | > 100 µM (inactive) | > 100 µM (inactive) | > 100 µM (inactive) | > 100 µM (inactive) | > 100 µM (inactive) | > 100 µM (inactive) | > 100 µM (inactive) | > 100 µM (inactive) | > 100 µM (inactive) | > 100 µM (inactive) | > 100 µM (inactive) | > 100 µM (inactive) |
| CC(C(=O)c1ccccc1)C1(O)C(=O)Nc2ccccc21 (stereo not given) | > 100 µM (inactive) | – | > 100 µM (inactive) | > 100 µM (inactive) | > 100 µM (inactive) | > 100 µM (inactive) | > 100 µM (inactive) | – | > 100 µM (inactive) | > 100 µM (inactive) | > 100 µM (inactive) | – | > 100 µM (inactive) | > 100 µM (inactive) | > 100 µM (inactive) | > 100 µM (inactive) | > 100 µM (inactive) | > 100 µM (inactive) | – | – |
| CC1(C)CC(=O)C(CC2C(=O)c3ccccc3C2=O)C(=O)C1 | > 100 µM (inactive) | – | > 100 µM (inactive) | 53.7 µM (inactive) | > 100 µM (inactive) | > 100 µM (inactive) | > 100 µM (inactive) | – | > 100 µM (inactive) | > 100 µM (inactive) | > 100 µM (inactive) | – | > 100 µM (inactive) | > 100 µM (inactive) | > 100 µM (inactive) | > 100 µM (inactive) | > 100 µM (inactive) | > 100 µM (inactive) | – | – |
| O=[N+]([O-])c1ccc2nc(Nc3ccccc3)c(Nc3ccccc3)nc2c1 | 1.25 µM (inactive) | 1.77 µM (inactive) | 1.55 µM (inactive) | 0.489 µM (active) | 1.15 µM (inactive) | 0.802 µM (active) | – | – | 0.42 µM (active) | 2.83 µM (inactive) | 0.787 µM (active) | 1.66 µM (inactive) | 2.15 µM (inactive) | 1.62 µM (inactive) | 1.58 µM (inactive) | 1.21 µM (inactive) | 1.3 µM (inactive) | 1.19 µM (inactive) | 0.847 µM (active) | 1.36 µM (inactive) |
| O=c1ccn2n1CCCCC2 | > 100 µM (inactive) | > 100 µM (inactive) | > 100 µM (inactive) | > 100 µM (inactive) | > 100 µM (inactive) | > 100 µM (inactive) | > 100 µM (inactive) | – | > 100 µM (inactive) | > 100 µM (inactive) | > 100 µM (inactive) | > 100 µM (inactive) | > 100 µM (inactive) | > 100 µM (inactive) | > 100 µM (inactive) | > 100 µM (inactive) | > 100 µM (inactive) | > 100 µM (inactive) | > 100 µM (inactive) | > 100 µM (inactive) |
| CC(C)CC(NC(=O)OC(C)(C)C)C(=O)NC(CCC(=O)OCc1ccc([N+](=O)[O-])cc1)C(=O)OCc1ccc([N+](=O)[O-])cc1 (stereo not drawn) (Boc-Leu-Glu(ONb)-ONb; configuration not given here) | 23 µM (inactive) | 13.5 µM (inactive) | 13 µM (inactive) | 13.8 µM (inactive) | > 100 µM (inactive) | > 100 µM (inactive) | 26.6 µM (inactive) | – | 22 µM (inactive) | 28.6 µM (inactive) | – | > 10 µM (inactive) | 43.8 µM (inactive) | 17.4 µM (inactive) | 18.7 µM (inactive) | 82.6 µM (inactive) | – | > 100 µM (inactive) | 27.9 µM (inactive) | > 100 µM (inactive) |
| O=[N+]([O-])c1ccc(S(=O)(=O)n2c3ccc(Br)cc3c3nc4ccccc4nc32)cc1 | > 100 µM (inactive) | > 100 µM (inactive) | > 100 µM (inactive) | > 100 µM (inactive) | > 100 µM (inactive) | > 100 µM (inactive) | > 100 µM (inactive) | – | > 100 µM (inactive) | > 100 µM (inactive) | – | > 100 µM (inactive) | > 100 µM (inactive) | > 100 µM (inactive) | – | > 100 µM (inactive) | > 100 µM (inactive) | > 100 µM (inactive) | > 100 µM (inactive) | > 100 µM (inactive) |
| CC(=O)Nc1ccccc1-c1cnc2ccccc2n1 | > 100 µM (inactive) | – | > 100 µM (inactive) | > 100 µM (inactive) | > 100 µM (inactive) | > 100 µM (inactive) | > 100 µM (inactive) | – | > 100 µM (inactive) | > 100 µM (inactive) | > 100 µM (inactive) | – | > 100 µM (inactive) | > 100 µM (inactive) | > 100 µM (inactive) | – | > 100 µM (inactive) | > 100 µM (inactive) | – | – |
| C=CCC(C)(C(=O)NCCC)C(=O)c1ccccc1O (stereo not given) | > 100 µM (inactive) | – | > 100 µM (inactive) | > 100 µM (inactive) | > 100 µM (inactive) | > 100 µM (inactive) | > 100 µM (inactive) | – | > 100 µM (inactive) | > 100 µM (inactive) | > 100 µM (inactive) | – | > 100 µM (inactive) | > 100 µM (inactive) | > 100 µM (inactive) | > 100 µM (inactive) | > 100 µM (inactive) | > 100 µM (inactive) | – | – |
| Cc1c(C(=O)CSc2nc3ccccc3[nH]2)c(=O)n(-c2ccccc2)n1C | > 100 µM (inactive) | – | > 100 µM (inactive) | > 100 µM (inactive) | > 100 µM (inactive) | > 100 µM (inactive) | 41.1 µM (inactive) | – | > 100 µM (inactive) | > 100 µM (inactive) | > 100 µM (inactive) | – | > 100 µM (inactive) | > 100 µM (inactive) | > 100 µM (inactive) | > 100 µM (inactive) | > 100 µM (inactive) | > 100 µM (inactive) | – | – |
| COC(=O)c1ccccc1CC(Cc1ccc2c(c1)CCC2)C(=O)OC (stereo not given) | > 100 µM (inactive) | > 100 µM (inactive) | 31.8 µM (inactive) | 36.9 µM (inactive) | > 100 µM (inactive) | > 100 µM (inactive) | 70 µM (inactive) | – | > 100 µM (inactive) | > 100 µM (inactive) | > 100 µM (inactive) | 66.1 µM (inactive) | 34.6 µM (inactive) | > 100 µM (inactive) | > 100 µM (inactive) | > 100 µM (inactive) | 33.6 µM (inactive) | > 100 µM (inactive) | 93.3 µM (inactive) | > 100 µM (inactive) |
